Results taken from patent publication US20220348878A1, “CELL PROLIFERATION INHIBITOR” (BOURBON CORPORATION, priority 2019, published 2022).

Assays:
Assay type in all cases: cell-based
Human fibroblasts = test: Test for confirming cell proliferation inhibitory effect (Example 1), phase-contrast observation of cell state; conditions: Day 9, no medium exchange; for Cell state: number of dead cells and cell proliferation: 1 mM, 5 mM or 8 mM glutamic acid
Description: Human fibroblasts (Catalog No. CC-2511) were cultured in a gelatin-coated cell culture dish (100-mm culture dish, obtained from SANPLATEC CO., LTD.) at 37° C. in the presence of 5% CO2, and used. As the medium, the DMEM basal medium was used.
(§1) After cell culture, the cells were recovered using a 0.1% by weight trypsin/1 mM EDTA solution, and seeded on a 12-well plate (obtained from Corning Co., Ltd.), and cultured overnight at 37° C. in the presence of 5% CO2 using the above DMEM basal medium.
(§2) The DMEM basal medium was replaced with the desired cell maintenance medium, and the cells were cultured (“Day 0 after culture”). No medium exchange was performed during the culture period.
(§3) Further, the same culture test as described above was conducted except that 1 mM, 5 mM or 8 mM of glutamic acid was added to the basal medium for cell culture.

Human fibroblast = test: Culture test with medium exchange every three days (Example 2), cell count; conditions: for Number of cells: Glutamic acid: 8 mM, average of three wells
Description: As the medium, the DMEM basal medium was used.
After cell culture, the cells were recovered using a 0.1% by weight trypsin/1 mM EDTA solution, and seeded on a 12-well plate (obtained from Corning Co., Ltd.), and cultured overnight at 37° C. in the presence of 5% CO2 using the above DMEM basal medium. […]
Note that the number of cells is an average of the numbers of cell counts in three wells, and the counts is measured by the following method.
(§4) After removing the culture supernatant of the cells by suction and washing the cells by using PBS, the cells were peeled off by using 0.1% trypsin/1 mM EDTA solution (FUJIFILM Wako Pure Chemical Corporation). The reaction of the releasing solution was stopped by adding the medium, and the cells were recovered. And then, the cell counts was conducted by using the Countess™ II Automated Cell Counter (Thermo Fisher Scientific).

[1] = tested on: Human mesenchymal stem cell; test: as above; conditions: for Number of cells: Glutamic acid: 8 mM, average of three wells
Description: (§5) Human mesenchymal stem cells (manufactured by Lonza, Catalog No. PT-5006) were cultured in a cell culture dish (100-mm culture dish, obtained from SANPLATEC CO., LTD.) coated with 10 μg/ml Fibronectin (Promocell) at 37° C. in the presence of 5% CO2, and used. As the medium, the DMEM basal medium was used.
as §1, §2
The same culture test as in Example 1 was conducted except that the medium was exchanged every three days during the culture period.
Tables 1 to 2 indicate the number of cells for each culture day. […] Note that the number of cells is an average of the numbers of cell counts in three wells, and the counts is measured by the following method.
as §4

[2] = tested on: Human mesenchymal stem cell; test: as above; conditions: w/o Glc medium instead of w/Glc medium; Glutamic acid 8 mM; FIG. 3, Day 12
[3] = tested on: Human mesenchymal stem cells; test: Test for confirming cell proliferation inhibitory effect (Example 1), phase-contrast observation of cell state; conditions: Day 9, no medium exchange; for Cell state: number of dead cells and cell proliferation: 1 mM, 5 mM or 8 mM glutamic acid
Description: as §5, §1, §2, §3

[4] = glucose-free DMEM basal medium (w/o Glc)
[5] = xylose DMEM basal medium (w/Xy)

`N[C@@H](CCC(=O)O)C(=O)O` [Glutamic acid, glutamic acid] was tested, and the “Cell state: number of dead cells and cell proliferation” value (from here on “Cell state: number”) (Human fibroblasts; [4]) was “the number of dead cells decreased and cell proliferation was inhibited as the glutamic acid concentration increased”, the Dead cells observed (Human fibroblasts; w/Xy, glutamic acid concentration 1 to 8 mM) was “dead cells were hardly observed” and the “Cell state: number” value (Human fibroblasts; [5]) was “the number of dead cells decreased and cell proliferation was inhibited as the glutamic acid concentration increased”. The Number of cells (Human fibroblast; Medium: w/G1c, Day 0) was 0.07 ×10^5 cells/cm^2, the Number of cells (Human fibroblast; Medium: w/G1c, Day 6) was 0.56 ×10^5 cells/cm^2 and the Number of cells (Human fibroblast; Medium: w/G1c, Day 12) was 1.46 ×10^5 cells/cm^2. For the same compound, the Number of cells (Human fibroblast; Medium: w/G1c, Day 18) was 1.72 ×10^5 cells/cm^2, the Number of cells (Human fibroblast; Medium: w/Xy, Day 0) was 0.07 ×10^5 cells/cm^2 and the Number of cells (Human fibroblast; Medium: w/Xy, Day 6) was 0.37 ×10^5 cells/cm^2. The Number of cells (Human fibroblast; Medium: w/Xy, Day 12) was 1.13 ×10^5 cells/cm^2, the Number of cells (Human fibroblast; Medium: w/Xy, Day 18) was 1.28 ×10^5 cells/cm^2 and the Number of cells (Human fibroblast; Medium: w/o G1c, Day 0) was 0.07 ×10^5 cells/cm^2. The Number of cells (Human fibroblast; Medium: w/o G1c, Day 6) was 0.27 ×10^5 cells/cm^2, the Number of cells (Human fibroblast; Medium: w/o G1c, Day 12) was 0.08 ×10^5 cells/cm^2 and the “Cell proliferation inhibition compared with the control test with w/Glc medium” value (Human fibroblast; w/Glc medium, Glutamic acid 8 mM, from Table 1) was “the cell proliferation was inhibited till 6 days after”. For the same compound, the “Cell proliferation inhibitory effect” value (Human fibroblast; w/Xy medium instead of w/Glc medium, Glutamic acid 8 mM, from Table 1) was “the cell proliferation inhibitory effect was remarkable, and it was possible to inhibit the cell proliferation for a longer period”, the “Number of cells and dead cells” value (Human fibroblast; w/o Glc medium instead of w/Glc medium, Glutamic acid 8 mM, from Table 1) was “the number of cells after 12 days was remarkably less, and the dead cells occurred” and the Number of cells ([1]; Medium: w/Glc, Day 0) was 0.356 ×10^4 cells/cm^2. The Number of cells ([1]; Medium: w/Glc, Day 3) was 1.12 ×10^4 cells/cm^2, the Number of cells ([1]; Medium: w/Glc, Day 6) was 2.96 ×10^4 cells/cm^2 and the Number of cells ([1]; Medium: w/Glc, Day 9) was 3.23 ×10^4 cells/cm^2. The Number of cells ([1]; Medium: w/Glc, Day 12) was 3.75 ×10^4 cells/cm^2, the Number of cells ([1]; Medium: w/Glc, Day 15) was 4.46 ×10^4 cells/cm^2 and the Number of cells ([1]; Medium: w/Glc, Day 18) was 5.37 ×10^4 cells/cm^2. The Number of cells ([1]; Medium: w/Xy, Day 0) was 0.356 ×10^4 cells/cm^2, the Number of cells ([1]; Medium: w/Xy, Day 3) was 0.855 ×10^4 cells/cm^2 and the Number of cells ([1]; Medium: w/Xy, Day 6) was 0.998 ×10^4 cells/cm^2. For the same compound, the Number of cells ([1]; Medium: w/Xy, Day 9) was 1.65 ×10^4 cells/cm^2, the Number of cells ([1]; Medium: w/Xy, Day 12) was 1.87 ×10^4 cells/cm^2 and the Number of cells ([1]; Medium: w/Xy, Day 15) was 2.77 ×10^4 cells/cm^2. The Number of cells ([1]; Medium: w/Xy, Day 18) was 3.90 ×10^4 cells/cm^2, the Number of cells ([1]; Medium: w/o Glc, Day 0) was 0.356 ×10^4 cells/cm^2 and the Number of cells ([1]; Medium: w/o Glc, Day 3) was 0.591 ×10^4 cells/cm^2. The Number of cells ([1]; Medium: w/o Glc, Day 6) was 0.662 ×10^4 cells/cm^2, the Number of cells ([1]; Medium: w/o Glc, Day 9) was 1.06 ×10^4 cells/cm^2 and the Number of cells ([1]; Medium: w/o Glc, Day 12) was 1.04 ×10^4 cells/cm^2. For the same compound, the Number of cells ([1]; Medium: w/o Glc, Day 15) was 1.50 ×10^4 cells/cm^2, the Number of cells ([1]; Medium: w/o Glc, Day 18) was 1.58 ×10^4 cells/cm^2 and the “Cell proliferation inhibition compared with the control test with w/Glc medium” value ([1]; w/Glc medium, Glutamic acid 8 mM, from Table 2) was “it was possible to inhibit the cell proliferation till 18 days after”. For the same compound, the “Cell proliferation inhibitory effect” value ([1]; w/Xy medium instead of w/Glc medium, Glutamic acid 8 mM, from Table 2) was “the cell proliferation inhibitory effect was remarkable”, the “Condition of cells (whitening around cells)” value [2] was “the ratio of whitening around cells ware large, and the conditions of cells deteriorated” and the “Cell state: number” value [3, 4] was “the number of dead cells decreased and cell proliferation was inhibited as the glutamic acid concentration increased”. For the same compound, the Dead cells observed ([3]; w/Xy, glutamic acid concentration 5 to 8 mM) was “dead cells were hardly observed” and the “Cell state: number” value [3, 5] was “the number of dead cells decreased and cell proliferation was inhibited as the glutamic acid concentration increased”.
